Assay results as given in patent US9790135B2, “Use of acylated carbonic esters of glycerol in agriculture” (AGRONUTRITION, priority 2013, dated 2017).

Experiments:
[1] = Stability of the concentrated colloidal suspension towards sedimentation; assay type: physicochemical; settings: concentrated colloidal suspension of MnCO3 (and MnSO4) in glycerol/water with the adjuvant
Description: The concentrated colloidal suspension is stable towards sedimentation over time—in particular over a period of 12 months—and is capable of being stored at a temperature of from −50° C. to +50° C. without any alteration of its rheological properties or of the stimulating and/or nutritive properties of the nutritive composition obtained by dilution of the concentrated colloidal suspension. Such a concentrated colloidal suspension can therefore be proposed for sale, marketed and distributed while retaining the stimulating and/or nutritive properties of the nutritive composition.
Cyclic glycerol carbonate (CG) of formula (VI), glycerol, water and manganese carbonate (MnCO3) in the form of a solid in the divided state, the solid particles of which have a mean size of approximately 2 μm, are mixed.

[2] = system: soya; test: Foliar manganese content of soya after foliar application of nutritive MnCO3 compositions; settings: soya crop, 500 g manganese carbonate per hectare
[3] = system: winter common wheat (variety Quality, ARVALIS); test: Manganese content retained in leaves of treated winter common wheat; assay type: in vivo
Description: A powder of manganese carbonate (MnCO3, CAS 598-62-9) having a mean particle size of substantially approximately 2 μm is prepared by grinding. A concentrated colloidal suspension comprising 58.7% of this powder in a liquid composition comprising 1.5% glycerol carbonate acetate (ECG-C2, as described in Example 3 and in Table 1), […], 7.5% water and 1% jojoba oil, the indicated percentages being percentages by mass. The concentrated colloidal suspension is diluted in water to form a treatment composition (Mn385) according to the invention which is suitable for applying, by spraying on the cultivated surface area, a quantity of manganese carbonate of 385 g per hectare of cultivated surface area.
There are also prepared: • a concentrated colloidal suspension as described in Example 4, and this concentrated colloidal suspension is diluted in water to form a nutritive composition (Mn457) according to the invention which is suitable for applying, by spraying, a quantity of manganese carbonate of 457 g per hectare of surface area; and • a concentrated colloidal suspension as described in Example 7, and this concentrated colloidal suspension is diluted in water to form a nutritive composition (Mn509) according to the invention which is suitable for applying, by spraying, a quantity of manganese carbonate of 509 g per hectare of cultivated surface area.
The nutritive compositions Mn385, Mn457 and Mn509 according to the invention are applied by spraying to plots of 4 parcels having a surface area of 16 m^2 cultivated with winter common wheat (variety “Quality”, ARVALIS).
There are also prepared in parallel: • on a plot of 4 16 m^2 parcels, a crop of winter common wheat treated by spraying with water, as negative control; and • on a plot of 4 16 m^2 parcels, a crop of winter common wheat treated with MnCO3 on its own (without adjuvant according to the invention) at a rate of 500 g per hectare, as control treatment; and • on a plot of 4 16 m^2 parcels, a crop of winter common wheat treated, by way of comparison, with a formulation of MANTRAC 500 at a rate of 500 g of MnCO3 per hectare.
The manganese content retained in the leaves of treated common wheat is measured one day (D+1), seven days (D+7), 14 days (D+14) and 21 days (D+21) after application. To that end, the leaves are removed and washed three times with water to remove the manganese carbonate that has not been absorbed by the plant, and the manganese absorbed into the leaves is then assayed. The results are given in Table 2 below and are expressed in ppm (μg of manganese per gram of leaf).
The kinetics of daily MnCO3 assimilation in the leaves are measured.

## CC(=O)OCC1COC(=O)O1 (stereo not drawn) [ECG-C2, cyclic α/α′-acetylated glycerol carbonic ester]
[1]
  stability of the concentrated colloidal suspension (settling of particles): stable over time

## CCCCCCC(=O)OCC1COC(=O)O1 (stereo not drawn) [ECG-C7, cyclic α/α′-heptanoylated glycerol carbonic ester]
[1]
  stability of the concentrated colloidal suspension (settling of particles): stable over time

## CCCCCCCCC(=O)OCC1COC(=O)O1 (stereo not drawn) [ECG-C9, cyclic α/α′-nonanoylated glycerol carbonic ester]
[1]
  stability of the concentrated colloidal suspension (settling of particles): stable over time

## C=CCCCCCCCCC(=O)OCC1COC(=O)O1 (stereo not drawn) [ECG-C11:1, cyclic α/α′-undecylenoylated glycerol carbonic ester]
[1]
  stability of the concentrated colloidal suspension (settling of particles): stable over time

## CCCCCCCC/C=C\CCCCCCCC(=O)OCC1COC(=O)O1 (stereo not drawn) [ECG-C18:1, cyclic α/α′-oleylated glycerol carbonic ester]
[2]
  foliar manganese content reached (maximum) up to four days after application: greater than 250 ppm
[1]
  stability of the concentrated colloidal suspension (settling of particles): stable over time

## manganese carbonate [MnCO3 on its own]
[3]; 500 g per hectare, without adjuvant
  results relative to the negative control (water) (in words): do not differ from the results obtained with the negative control
[3]; 14 days after application
  manganese content retained in the leaves, D + 14: 112.50 +/− 45.35 ppm (μg of manganese per gram of leaf)
[3]; 21 days after application
  manganese content retained in the leaves, D + 21: 95.43 +/− 5.95 ppm (μg of manganese per gram of leaf)
[3]; one day after application, leaves washed three times with water
  manganese content retained in the leaves, D + 1: 84.83 +/− 28.01 ppm (μg of manganese per gram of leaf)
[3]; seven days after application
  manganese content retained in the leaves, D + 7: 74.83 +/− 19.14 ppm (μg of manganese per gram of leaf)
